# Source: the supplement of paper PMC9663587
# Columns and labels:
# [1] = compound: CN(C)C/C=C/C(=O)Nc1ccc(O[C@@H]2CCC[C@@H](Nc3ncc(Cl)c(-c4c[nH]c5ccccc45)n3)C2)cc1 [BSJ-01-175]
# [2] = compound: NC(=O)Nc1cc(-c2cccc(F)c2)sc1C(=O)N[C@H]1CCCNC1 [AZD7762]
# [3] = compound: COc1ccc2c(c1)[C@]1(C[C@H]1c1ccc3c(/C=C/c4ccc(CN5C[C@@H](C)O[C@@H](C)C5)cc4)n[nH]c3c1)C(=O)N2
# [4] = compound: CCC1=CN=CN=C1N2CCN(CC2)CC3=NC4=C(N3)C=C(C=C4)C(F)(F)F
# [5] = compound: C[C@@H]1COCCN1c1cc(C2([S@](C)(=N)=O)CC2)nc(-c2cc[nH]c3nccc2-3)n1 [AZD6738]
# [6] = compound: O=C1NC(=O)[C@@H](c2cn3c4c(cccc24)CCC3)[C@@H]1c1c[nH]c2ccccc12 [Tivantinib/ARQ197]
# [7] = compound: CC(=O)Nc1cccc(-n2c(=O)n(C3CC3)c(=O)c3c(Nc4ccc(I)cc4F)n(C)c(=O)c(C)c32)c1
# [8] = compound: O=C(CCCCCCC(=O)Nc1ccccc1)NO [Vorinostat]
# [9] = compound: CN1CC[C@H](c2c(O)cc(O)c3c(=O)cc(-c4ccccc4Cl)oc23)[C@H](O)C1 [Flavopiridol]; assay: increase in dead-cell fraction, 72 h; higher = more death;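 note: breast cancer cell lines in 384-well plates, stained with Hoechst plus LIVE/DEAD far red dye and imaged, cells above an LDR intensity threshold counted dead, Hoechst-negative corpses included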
# [10] = compound: CCc1cnn2c(NCc3ccc[n+]([O-])c3)cc(N3CCCC[C@H]3CCO)nc12; assay: as above
# [11] = compound: CN(C)C(=O)c1cc2cnc(Nc3ccc(N4CCNCC4)cn3)nc2n1C1CCCC1 [LEE011/Ribociclib]; assay: as above
# [12] = compound: CN(C)C/C=C/C(=O)Nc1ccc(C(=O)Nc2cccc(Nc3ncc(Cl)c(-c4c[nH]c5ccccc45)n3)c2)cc1 [THZ1]; assay: as above
# [13] = compound: CC(=O)c1c(C)c2cnc(Nc3ccc(N4CCN(CCOCCOCCOCCNC(=O)COc5cccc6c5C(=O)N(C5CCC(=O)NC5=O)C6=O)CC4)cn3)nc2n(C2CCCC2)c1=O [BSJ-03-123]; assay: as above
# [14] = compound: CC(=O)c1c(C)c2cnc(Nc3ccc(N4CCNCC4)cn3)nc2n(C2CCCC2)c1=O; assay: as above
# [15] = compound: CCOc1cc2ncc(C#N)c(Nc3ccc(OCc4ccccn4)c(Cl)c3)c2cc1NC(=O)/C=C/CN(C)C [Neratinib/HKI272]; assay: as above
# [16] = compound: CCN1CCN(Cc2ccc(Nc3ncc(F)c(-c4cc(F)c5nc(C)n(C(C)C)c5c4)n3)nc2)CC1; assay: as above
# [17] = compound: CC(C)NC[C@@H](C(=O)N1CCN(c2ncnc3c2[C@H](C)C[C@H]3O)CC1)c1ccc(Cl)cc1 [Ipatasertib/GDC0068]
# [18] = compound: CNC(=O)c1cccc(-c2ccc3c(N4CCOC[C@@H]4C)nc(N4CCOC[C@@H]4C)nc3n2)c1 [AZD2014]
# [19] = compound: CCN1CCN(Cc2ccc(Nc3ncc(F)c(-c4cc(F)c5nc(C)n(C(C)C)c5c4)n3)nc2)CC1
# 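Throughout, for GR50, 72 h: breast cancer and non-malignant breast epithelial cell lines, Deep Dye Drop or Dye Drop imaging, nine half-log doses, GR normalized to time-zero plates and DMSO-only controls.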
cell line,measurement,setting,value
HCC1187,"GR50, 72 h",[1],0.00928 µM
same,"GR50, 72 h",[2],0.0508 µM
same,"GR50, 72 h",[3],0.00763 µM
same,"GR50, 72 h",[4],> 10 µM
same,"GR50, 72 h",[5],1.21 µM
same,"GR50, 72 h",[6],0.0418 µM
same,"GR50, 72 h",[7],> 1 µM
same,"GR50, 72 h",[8],1.07 µM
same,increase in dead-cell fraction,[9]; 0.0001 µM,-0.0206
same,increase in dead-cell fraction,[9]; 0.0003162 µM,0.0043
same,increase in dead-cell fraction,[9]; 0.001 µM,0.0532
same,increase in dead-cell fraction,[9]; 0.003162 µM,-0.0091
same,increase in dead-cell fraction,[9]; 0.01 µM,0.0053
same,increase in dead-cell fraction,[9]; 0.03162 µM,-0.0105
same,increase in dead-cell fraction,[9]; 0.1 µM,0.0075
same,increase in dead-cell fraction,[9]; 0.3162 µM,0.15
same,increase in dead-cell fraction,[9]; 1 µM,0.612
same,increase in dead-cell fraction,[10]; 0.0001 µM,0.0033
same,increase in dead-cell fraction,[10]; 0.0003162 µM,0.0035
same,increase in dead-cell fraction,[10]; 0.001 µM,0.0039
same,increase in dead-cell fraction,[10]; 0.003162 µM,0.0055
same,increase in dead-cell fraction,[10]; 0.01 µM,0.0539
same,increase in dead-cell fraction,[10]; 0.03162 µM,0.56
same,increase in dead-cell fraction,[10]; 0.1 µM,0.662
same,increase in dead-cell fraction,[10]; 0.3162 µM,0.668
same,increase in dead-cell fraction,[10]; 1 µM,0.598
same,increase in dead-cell fraction,[11]; 0.001 µM,-0.0158
same,increase in dead-cell fraction,[11]; 0.003162 µM,0.0194
same,increase in dead-cell fraction,[11]; 0.01 µM,0.0202
same,increase in dead-cell fraction,[11]; 0.03162 µM,0.0086
same,increase in dead-cell fraction,[11]; 0.1 µM,-0.01
same,increase in dead-cell fraction,[11]; 0.3162 µM,0.0057
same,increase in dead-cell fraction,[11]; 1 µM,0.0164
same,increase in dead-cell fraction,[11]; 3.162 µM,0.0124
same,increase in dead-cell fraction,[11]; 10 µM,0.0129
same,increase in dead-cell fraction,[12]; 0.0001 µM,-0.0047
same,increase in dead-cell fraction,[12]; 0.0003162 µM,-0.0081
same,increase in dead-cell fraction,[12]; 0.001 µM,0.0016
same,increase in dead-cell fraction,[12]; 0.003162 µM,0.019
same,increase in dead-cell fraction,[12]; 0.01 µM,0.0061
same,increase in dead-cell fraction,[12]; 0.03162 µM,0.113
same,increase in dead-cell fraction,[12]; 0.1 µM,0.421
same,increase in dead-cell fraction,[12]; 0.3162 µM,0.568
same,increase in dead-cell fraction,[12]; 1 µM,0.624
same,increase in dead-cell fraction,[13]; 0.001 µM,0.0005
same,increase in dead-cell fraction,[13]; 0.003162 µM,-0.0076
same,increase in dead-cell fraction,[13]; 0.01 µM,-0.0142
same,increase in dead-cell fraction,[13]; 0.03162 µM,-0.0171
same,increase in dead-cell fraction,[13]; 0.1 µM,0.013
same,increase in dead-cell fraction,[13]; 0.3162 µM,0.0153
same,increase in dead-cell fraction,[13]; 1 µM,0.037
same,increase in dead-cell fraction,[13]; 3.162 µM,0.0469
same,increase in dead-cell fraction,[13]; 10 µM,0.323
same,increase in dead-cell fraction,[14]; 0.0003162 µM,-0.0075
same,increase in dead-cell fraction,[14]; 0.001 µM,0.0038
same,increase in dead-cell fraction,[14]; 0.003162 µM,0.0189
same,increase in dead-cell fraction,[14]; 0.01 µM,0.0048
same,increase in dead-cell fraction,[14]; 0.03162 µM,-0.0042
same,increase in dead-cell fraction,[14]; 0.1 µM,-0.001
same,increase in dead-cell fraction,[14]; 0.3162 µM,-0.0035
same,increase in dead-cell fraction,[14]; 1 µM,0.0145
same,increase in dead-cell fraction,[14]; 3.162 µM,0.0042
same,increase in dead-cell fraction,[15]; 0.0003162 µM,-0.0132
same,increase in dead-cell fraction,[15]; 0.001 µM,0.0086
same,increase in dead-cell fraction,[15]; 0.003162 µM,-0.0045
same,increase in dead-cell fraction,[15]; 0.01 µM,-0.0058
same,increase in dead-cell fraction,[15]; 0.03162 µM,-0.0052
same,increase in dead-cell fraction,[15]; 0.1 µM,-0.002
same,increase in dead-cell fraction,[15]; 0.3162 µM,0.0006
same,increase in dead-cell fraction,[15]; 1 µM,0.0155
same,increase in dead-cell fraction,[15]; 3.162 µM,0.0076
same,increase in dead-cell fraction,[16]; 0.001 µM,0.0028
same,increase in dead-cell fraction,[16]; 0.003162 µM,0.0037
same,increase in dead-cell fraction,[16]; 0.01 µM,0.0062
same,increase in dead-cell fraction,[16]; 0.03162 µM,-0.0026
same,increase in dead-cell fraction,[16]; 0.1 µM,0.0042
same,increase in dead-cell fraction,[16]; 0.3162 µM,0.0069
same,increase in dead-cell fraction,[16]; 1 µM,-0.0008
same,increase in dead-cell fraction,[16]; 3.162 µM,0.0149
same,increase in dead-cell fraction,[16]; 10 µM,0.0352
SUM185PE,"GR50, 72 h",[1],0.103 µM
same,"GR50, 72 h",[2],0.0985 µM
same,"GR50, 72 h",[17],6.34 µM
same,"GR50, 72 h",[4],3.03 µM
same,"GR50, 72 h",[5],> 10 µM
same,"GR50, 72 h",[6],0.784 µM
same,"GR50, 72 h",[18],0.00637 µM
same,"GR50, 72 h",[7],> 1 µM
same,"GR50, 72 h",[8],6.86 µM
same,"GR50, 72 h",[19],9.37 µM
same,increase in dead-cell fraction,[9]; 0.0001 µM,0.0138
same,increase in dead-cell fraction,[9]; 0.0003162 µM,0.0542
same,increase in dead-cell fraction,[9]; 0.001 µM,0.0183
same,increase in dead-cell fraction,[9]; 0.003162 µM,-0.0158
same,increase in dead-cell fraction,[9]; 0.01 µM,0.0161
same,increase in dead-cell fraction,[9]; 0.03162 µM,0.0472
same,increase in dead-cell fraction,[9]; 0.1 µM,0.021
same,increase in dead-cell fraction,[9]; 0.3162 µM,-0.002
same,increase in dead-cell fraction,[9]; 1 µM,0.117
same,increase in dead-cell fraction,[10]; 0.0001 µM,-0.003
same,increase in dead-cell fraction,[10]; 0.0003162 µM,0.0089
same,increase in dead-cell fraction,[10]; 0.001 µM,-0.0107
same,increase in dead-cell fraction,[10]; 0.003162 µM,0.0052
same,increase in dead-cell fraction,[10]; 0.01 µM,0.0137
same,increase in dead-cell fraction,[10]; 0.03162 µM,0.0687
same,increase in dead-cell fraction,[10]; 0.1 µM,0.0528
same,increase in dead-cell fraction,[10]; 0.3162 µM,0.0636
same,increase in dead-cell fraction,[10]; 1 µM,0.0458
same,increase in dead-cell fraction,[11]; 0.001 µM,-0.0065
same,increase in dead-cell fraction,[11]; 0.003162 µM,-0.0157
same,increase in dead-cell fraction,[11]; 0.01 µM,-0.0081
same,increase in dead-cell fraction,[11]; 0.03162 µM,-0.0009
same,increase in dead-cell fraction,[11]; 0.1 µM,-0.0246
same,increase in dead-cell fraction,[11]; 0.3162 µM,-0.0198
same,increase in dead-cell fraction,[11]; 1 µM,-0.0191
same,increase in dead-cell fraction,[11]; 3.162 µM,-0.0045
same,increase in dead-cell fraction,[11]; 10 µM,0.0009
same,increase in dead-cell fraction,[12]; 0.0001 µM,-0.0025
same,increase in dead-cell fraction,[12]; 0.0003162 µM,0.0107
same,increase in dead-cell fraction,[12]; 0.001 µM,-0.0054
same,increase in dead-cell fraction,[12]; 0.003162 µM,0.0295
same,increase in dead-cell fraction,[12]; 0.01 µM,0.0559
same,increase in dead-cell fraction,[12]; 0.03162 µM,0.216
same,increase in dead-cell fraction,[12]; 0.1 µM,0.224
same,increase in dead-cell fraction,[12]; 0.3162 µM,0.154
same,increase in dead-cell fraction,[12]; 1 µM,0.183
same,increase in dead-cell fraction,[13]; 0.001 µM,-0.0024
same,increase in dead-cell fraction,[13]; 0.003162 µM,-0.0357
same,increase in dead-cell fraction,[13]; 0.01 µM,0.0044
same,increase in dead-cell fraction,[13]; 0.03162 µM,0.0319
same,increase in dead-cell fraction,[13]; 0.1 µM,0.0144
same,increase in dead-cell fraction,[13]; 0.3162 µM,-0.0016
same,increase in dead-cell fraction,[13]; 1 µM,0.0213
same,increase in dead-cell fraction,[13]; 3.162 µM,0.0264
same,increase in dead-cell fraction,[13]; 10 µM,0.0146
same,increase in dead-cell fraction,[14]; 0.0003162 µM,0.0082
same,increase in dead-cell fraction,[14]; 0.001 µM,0.0038
same,increase in dead-cell fraction,[14]; 0.003162 µM,0.0174
same,increase in dead-cell fraction,[14]; 0.01 µM,-0.0044
same,increase in dead-cell fraction,[14]; 0.03162 µM,-0.0035
same,increase in dead-cell fraction,[14]; 0.1 µM,0.0063
same,increase in dead-cell fraction,[14]; 0.3162 µM,0.02
same,increase in dead-cell fraction,[14]; 1 µM,0.0086
same,increase in dead-cell fraction,[14]; 3.162 µM,0.0015
same,increase in dead-cell fraction,[15]; 0.0003162 µM,0.0036
same,increase in dead-cell fraction,[15]; 0.001 µM,-0.0035
same,increase in dead-cell fraction,[15]; 0.003162 µM,0.0085
same,increase in dead-cell fraction,[15]; 0.01 µM,0.0152
same,increase in dead-cell fraction,[15]; 0.03162 µM,0.0297
same,increase in dead-cell fraction,[15]; 0.1 µM,0.0255
same,increase in dead-cell fraction,[15]; 0.3162 µM,0.0574
same,increase in dead-cell fraction,[15]; 1 µM,0.068
same,increase in dead-cell fraction,[15]; 3.162 µM,0.0933
same,increase in dead-cell fraction,[16]; 0.001 µM,-0.0051
same,increase in dead-cell fraction,[16]; 0.003162 µM,0.0054
same,increase in dead-cell fraction,[16]; 0.01 µM,0.0159
same,increase in dead-cell fraction,[16]; 0.03162 µM,0.0271
same,increase in dead-cell fraction,[16]; 0.1 µM,0.0298
same,increase in dead-cell fraction,[16]; 0.3162 µM,0.0411
same,increase in dead-cell fraction,[16]; 1 µM,0.0307
same,increase in dead-cell fraction,[16]; 3.162 µM,0.0469
same,increase in dead-cell fraction,[16]; 10 µM,0.04
